In brackets after ≈: the same amount, converted by molar mass. Where two headings read alike, the source gives them in different places.
How the values were obtained:
Format in all cases: cell-based
H. influ. = assay: Agar Dilution MIC (Table I); details: read-out: Agar Dilution MIC
Strep. D = assay: Agar Dilution MIC (Table I); details: for MIC: read-out: Agar Dilution MIC
Source text: A typical and preferred compound provided by this invention is 7-(3-benzothienyl)glycylamido-3-methyl-3-cephem-4-carboxylic acid, the compound illustrated in Example 9. The antibacterial activity of this compound has been determined in standard in vitro agar dilution assays against a variety of gram positive and gram negative microorganism. The following Tables present typical minimum inhibitory concentrations (MIC's) in μg/ml for several compounds of the invention when evaluated against the indicated microorganisms. MIC's for several known compounds are also presented for comparison.
Agar Dilution MIC (μg/ml)

E. coli = assay: Agar Dilution MIC (Table I); details: Escherichia coli
Strep. A = assay: Agar Dilution MIC (Table I); details: read-out: Agar Dilution MIC
Staph. aureus = assay: Agar Dilution MIC (Table I); details: Staphylococcus aureus
Bacteroides fragilis = assay: Expanded anaerobic Spectrum MIC (Table IV)
Klebsiella = assay: Agar Dilution MIC (Table I); details: for MIC: Klebsiella, read-out: Agar Dilution MIC
Haemophilus influenzae = assay: Expanded H. influenzae Spectrum MIC (Table IV)
Strep. PN = assay: Agar Dilution MIC (Table I); details: strain PARK
Staph. epi = assay: Agar Dilution MIC (Table I); details: read-out: Agar Dilution MIC
[1] = strain X1.1, read-out: Agar Dilution MIC
[2] = geometric mean over strains, read-out: MIC Geometric mean
[3] = mean over strains, read-out: MIC mean
[4] = geometric mean over strains, read-out: MIC Geometric Mean
[5] = strain V41, read-out: Agar Dilution MIC
[6] = strain X400, read-out: Agar Dilution MIC

Row | SMILES | MIC (H. influ.; strain 76) | MIC (H. influ.; strain C.L.) | MIC (Strep. D; strain X66) | MIC (E. coli; strain EC14) | MIC (E. coli; strain N10) | MIC (Staph. aureus; [1]) | MIC (Bacteroides fragilis; [2]) | MIC (Bacteroides fragilis; [3]) | MIC (Bacteroides fragilis; strain 180-821, read-out: MIC) | MIC (Bacteroides fragilis; strain 10668, read-out: MIC) | MIC (Bacteroides fragilis; strain 10695, read-out: MIC) | MIC (Bacteroides fragilis; strain 10732, read-out: MIC) | MIC (Bacteroides fragilis; strain 10750, read-out: MIC) | MIC (Bacteroides fragilis; strain 10774, read-out: MIC) | MIC (Bacteroides fragilis; strain 10817, read-out: MIC) | MIC (Bacteroides fragilis; strain 10837, read-out: MIC) | MIC (Bacteroides fragilis; strain 107266, read-out: MIC) | MIC (Bacteroides fragilis; strain 107268, read-out: MIC) | MIC (Bacteroides fragilis; strain 108133, read-out: MIC) | MIC (Klebsiella) | further results
1 | CC1(C)S[C@@H]2[C@H](NC(=O)[C@H](N)c3ccccc3)C(=O)N2[C@H]1C(=O)O [Ampicillin, reference compound] | 16 µg/mL (≈ 45.8 µM) | 0.5 µg/mL (≈ 1.43 µM) | 4 µg/mL (≈ 11.4 µM) | 4 µg/mL (≈ 11.4 µM) | 8 µg/mL (≈ 22.9 µM) | – | – | – | – | – | – | – | – | – | – | – | – | – | – | – | –
2 | CC1=C(C(=O)O)N2C(=O)[C@@H](NC(=O)[C@H](N)c3ccccc3)[C@H]2SC1 [Cephalexin] | – | – | – | 4 µg/mL (≈ 11.5 µM) | – | 4 µg/mL (≈ 11.5 µM) | 34 µg/mL (≈ 97.9 µM) | 40 µg/mL (≈ 115 µM) | 16 µg/mL (≈ 46.1 µM) | > 64 µg/mL | 64 µg/mL (≈ 184 µM) | 32 µg/mL (≈ 92.1 µM) | 64 µg/mL (≈ 184 µM) | > 64 µg/mL | 16 µg/mL (≈ 46.1 µM) | 16 µg/mL (≈ 46.1 µM) | 32 µg/mL (≈ 92.1 µM) | 16 µg/mL (≈ 46.1 µM) | 32 µg/mL (≈ 92.1 µM) | 128 µg/mL (≈ 368 µM) | MIC (Strep. A): 0.5 µg/mL (≈ 1.44 µM); MIC (Staph. aureus; read-out: Agar Dilution MIC): 128 µg/mL (≈ 368 µM); MIC (Bacteroides fragilis; strain 10683, read-out: MIC): > 64 µg/mL; MIC (Strep. D): 128 µg/mL (≈ 368 µM); Agar Dilution MIC (Strep. D; strain 2041): 128 µg/mL; MIC (Haemophilus influenzae; [4]): 12 µg/mL (≈ 34.5 µM); MIC (Haemophilus influenzae; [3]): 22 µg/mL (≈ 63.3 µM); MIC (Haemophilus influenzae; strain 105): 4 µg/mL (≈ 11.5 µM); MIC (Haemophilus influenzae; strain 112, read-out: MIC): 16 µg/mL (≈ 46.1 µM)
3 | CC1=C(C(=O)O)N2C(=O)C(NC(=O)C(N)c3cc4ccccc4s3)C2SC1 (centres unmarked) [Compound B, 7-(2-benzothienyl)glycylamido-3-methyl-3-cephem-4-carboxylic acid] | – | – | – | – | – | – | 15 µg/mL (≈ 37.2 µM) | 27 µg/mL (≈ 66.9 µM) | 2 µg/mL (≈ 4.96 µM) | 64 µg/mL (≈ 159 µM) | 16 µg/mL (≈ 39.7 µM) | 4 µg/mL (≈ 9.91 µM) | 64 µg/mL (≈ 159 µM) | 64 µg/mL (≈ 159 µM) | 4 µg/mL (≈ 9.91 µM) | 16 µg/mL (≈ 39.7 µM) | 4 µg/mL (≈ 9.91 µM) | 16 µg/mL (≈ 39.7 µM) | 16 µg/mL (≈ 39.7 µM) | – | MIC (Haemophilus influenzae; [4]): 2 µg/mL (≈ 4.96 µM); MIC (Haemophilus influenzae; [3]): 3 µg/mL (≈ 7.44 µM); MIC (Haemophilus influenzae; strain 102): 16 µg/mL (≈ 39.7 µM); MIC (Haemophilus influenzae; strain 104, read-out: MIC): 2 µg/mL (≈ 4.96 µM); MIC (Haemophilus influenzae; strain 107): 4 µg/mL (≈ 9.91 µM); MIC (Haemophilus influenzae; strain 109, read-out: MIC): 1 µg/mL (≈ 2.48 µM); MIC (Haemophilus influenzae; strain 110): 4 µg/mL (≈ 9.91 µM); MIC (Haemophilus influenzae; strain 112, read-out: MIC): 8 µg/mL (≈ 19.8 µM); MIC (Haemophilus influenzae; strain 113, read-out: MIC): 2 µg/mL (≈ 4.96 µM); MIC (Haemophilus influenzae; strain 114, read-out: MIC): 2 µg/mL (≈ 4.96 µM)
4 | CC1=C(C(=O)O)N2C(=O)C(NC(=O)[C@@H](N)c3csc4c(F)cccc34)C2SC1 (stereo partly drawn) [Ex. 21, L-7-(7-Fluoro-3-benzothienyl)glycylamido-3-methyl-3-cephem-4-carboxylic acid] | 8 µg/mL (≈ 19 µM) | 64 µg/mL (≈ 152 µM) | – | 128 µg/mL (≈ 304 µM) | 128 µg/mL (≈ 304 µM) | 32 µg/mL (≈ 75.9 µM) | – | – | – | – | – | – | – | – | – | – | – | – | – | 128 µg/mL (≈ 304 µM) | MIC (Strep. A; strain C203): 8 µg/mL (≈ 19 µM); MIC (Staph. aureus; read-out: Agar Dilution MIC, strain S13E): 128 µg/mL (≈ 304 µM); MIC (Staph. aureus; [5]): 128 µg/mL (≈ 304 µM); MIC (Staph. aureus; [6]): 128 µg/mL (≈ 304 µM); MIC (Klebsiella; strain X26): 64 µg/mL (≈ 152 µM); Agar Dilution MIC (Klebsiella; strain X68): 128 µg/mL; MIC (Strep. D): 128 µg/mL (≈ 304 µM); Agar Dilution MIC (Strep. D; strain 2041): 128 µg/mL; MIC (Strep. PN): 16 µg/mL (≈ 38 µM); MIC (E. coli; strain TEM): 128 µg/mL (≈ 304 µM); MIC (Staph. epi): 128 µg/mL (≈ 304 µM); MIC (Staph. epi; strain 222): 64 µg/mL (≈ 152 µM)
5 | C=CC1=C(C(=O)O)N2C(=O)C(NC(=O)[C@H](N)c3csc4ccccc34)C2SC1 (stereo partly drawn) [Ex. 35, D-7-(3-Benzothienylglycylamido)-3-vinyl-3-cephem-4-carboxylic acid] | 1 µg/mL (≈ 2.41 µM) | 8 µg/mL (≈ 19.3 µM) | 64 µg/mL (≈ 154 µM) | 128 µg/mL (≈ 308 µM) | 128 µg/mL (≈ 308 µM) | 2 µg/mL (≈ 4.81 µM) | – | – | – | – | – | – | – | – | – | – | – | – | – | – | MIC (Staph. aureus; [5]): 16 µg/mL (≈ 38.5 µM); MIC (Staph. aureus; [6]): 32 µg/mL (≈ 77 µM); MIC (Klebsiella; strain KAE): 128 µg/mL (≈ 308 µM); MIC (Klebsiella; strain X26): 8 µg/mL (≈ 19.3 µM); MIC (Klebsiella; strain X68): 128 µg/mL (≈ 308 µM); MIC (Strep. D; strain 2041): 32 µg/mL (≈ 77 µM); MIC (E. coli; strain TEM): 128 µg/mL (≈ 308 µM); MIC (Staph. epi; strain 222): 2 µg/mL (≈ 4.81 µM); MIC (Staph. epi; strain EPI1): 8 µg/mL (≈ 19.3 µM)

Reference: patent publication US4492693A, “Benzothienylglycyl cephalosporin derivatives” (priority 1983, dated 1985)
